Experimental data: patent publication US20110262544A1, “OPHTHALMIC ADMINISTRATION OF A COMPOSITION INCLUDING BRIMONIDINE AS A MIST” (PHARMALIGHT INC., priority 2008, published 2011)

Tests used:
[1] = tested on: albino New Zealand white rabbits; conditions: conclusion from retinal blood flow in rabbits
Protocol: Retinal blood flow rate in the major temporal vein in the right eye of albino New Zealand white rabbits is measured at pre-administration baseline, as well as post-administration of Alphagan® P as drops, post-administration of a composition comprising brimonidine and a penetration enhancer as a mist, and post-administration of a composition in accordance with the principles of the present invention comprising brimonidine or a salt thereof and being devoid of a penetration enhancer as a mist. […] In this instrument, the measuring laser beam is locked onto the target blood vessel during eye movements through an eye-tracking feedback and control system. Doppler-shifted laser light scattered from a retinal vessel is analyzed to determine centerline blood velocity.
Venous blood flow, which is known to be directly correlated to arterial blood flow, is measured, since retinal veins have a larger diameter than retinal arteries, facilitating better locking of the measuring laser beams onto the target vessel. […]
The beam from a red 675-nm diode laser is used for velocity measurement, emitted from a fundus camera-like measuring head. The Doppler-shifted light scattered from the flowing blood cells in the target vessel is detected simultaneously in two directions, separated by a fixed angle. […]
Following administration of the composition, the blood flow velocity in the same veins is measured.

Glaucoma patients = conditions: normal tension glaucoma patients; cited from earlier work

Row | SMILES | efficacy compared between ways of administration or compositions [1] | maintenance of retinal blood flow homeostasis with changes in posture (Glaucoma patients)
1 | Brc1c(NC2=NCCN2)ccc2nccnc12 [brimonidine, 5-Bromo-N-(4,5-dihydro-1H-imidazol-2-yl) quinoxalin-6-amine] | as effective as administration in the form of eye-drops | maintained retinal blood flow homeostasis
2 | CC(C)OC(=O)CCC/C=C\C[C@@H]1[C@@H](CC[C@@H](O)CCc2ccccc2)[C@H](O)C[C@@H]1O [latanoprost] |  | not
